The record followed here is PubChem BioAssay (NCI).

Each structure is given as a SMILES string. Values joined by “and” are separate entries in the source; they are usually repeats but may differ in a detail not shown here. Equal entries are not always repeated.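 Five concentrations, 48 hours, 96-well plates. Here, GI50 denotes the concentration required for 50% inhibition of growth. TGI: total growth inhibition.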

Among the test systems are SN12C renal; NCI-H226 lung; MCF7 breast; PC-3 prostate; RXF 393 renal; SNB-19 CNS; BT-549 breast; IGROV1 ovarian; HOP-92 NSCLC; MOLT-4 leukemia.
Common to all, as to assay: inhibition of tumour cell growth, NCI panel, 48 h

For `O=C(CC(O)c1ccncc1)c1ccccc1` (configuration not stated), the GI50 was 29.8 µM in the experiment on SN12C renal; 33.9 µM with NCI-H226 lung; 24.7 µM in the experiment with MCF7 breast; 23.3 µM in the experiment on PC-3 prostate; 21.3 µM in the experiment on RXF 393 renal; 34.1 µM in the experiment on SNB-19 CNS. For the same compound, the GI50 in the experiment with BT-549 breast is 22.4 µM; with IGROV1 ovarian it was 35.9 µM; in the experiment on HOP-92 NSCLC, 16.1 µM; in the experiment on MOLT-4 leukemia it was 22.2 µM. Also, the TGI with SN12C renal, in the experiment on NCI-H226 lung, with MCF7 breast, with PC-3 prostate, in the experiment with RXF 393 renal and in the experiment on SNB-19 CNS was above 100 µM throughout. In addition, the TGI was 88.4 µM in the experiment on BT-549 breast, above 100 µM in the experiment on IGROV1 ovarian, 69.6 µM in the experiment on HOP-92 NSCLC and 79.4 µM in the experiment on MOLT-4 leukemia.

In the case of `Nc1nc(Cl)c(N=Nc2ccc(Cl)cc2)c(NCC2(CO)CC(OCc3ccccc3)C2)n1` (configuration not stated), the TGI was 16.9 µM and > 100 µM and 22 µM with SN12C renal; 28.9 µM and > 100 µM and 24.9 µM in the experiment on NCI-H226 lung; 14.2 µM and > 100 µM and 22.6 µM in the experiment on MCF7 breast; 77.5 µM and > 100 µM and 26.5 µM in the experiment on PC-3 prostate; 19.7 µM and > 100 µM and 25.6 µM with RXF 393 renal; > 100 µM and 47.6 µM in the experiment with SNB-19 CNS. The TGI in the experiment on BT-549 breast is 46 µM and > 100 µM and 23.9 µM; with IGROV1 ovarian it was 70.3 µM and > 100 µM and 29.9 µM; with MOLT-4 leukemia it was 38.6 µM and > 100 µM and > 48.4 µM. For the same compound, the GI50 in the experiment with NCI-H226 lung is 6.92 µM and 18.9 µM and 6.68 µM; with MCF7 breast it was 3.9 µM and 31.3 µM and 7.84 µM; in the experiment with PC-3 prostate it was 42.8 µM and 10.9 µM; with RXF 393 renal, 5.17 µM and > 48.3 µM and 8.18 µM; in the experiment with SNB-19 CNS, 26.7 µM and > 100 µM and 18.3 µM; in the experiment with BT-549 breast, 4.98 µM and 45.7 µM and 8.82 µM. Also, the GI50 is 1.83 µM and 6.13 µM and 2.33 µM in the experiment with HOP-92 NSCLC; 3.39 µM and 9.61 µM and 3.56 µM in the experiment on MOLT-4 leukemia.

Consider `COc1ccc(Cn2cc3c(c2-c2ccc(O)cc2)CCc2cnoc2-3)cc1`, for which the GI50 was 1.16 µM in the experiment with SN12C renal; 4.6 µM in the experiment with NCI-H226 lung; 0.333 µM with MCF7 breast; 0.653 µM in the experiment on PC-3 prostate; 0.309 µM in the experiment on RXF 393 renal; 0.586 µM in the experiment with SNB-19 CNS. The GI50 was 10 µM with BT-549 breast, 0.578 µM in the experiment on IGROV1 ovarian, 13.9 µM with HOP-92 NSCLC and 0.507 µM with MOLT-4 leukemia. Moreover, the TGI is 23.2 µM in the experiment on SN12C renal; 31.3 µM with NCI-H226 lung; 15.5 µM with MCF7 breast; 44.5 µM in the experiment with PC-3 prostate; 3.67 µM in the experiment on RXF 393 renal; 17.1 µM with SNB-19 CNS. For the same compound, the TGI in the experiment on BT-549 breast was 26.7 µM; with IGROV1 ovarian, 23.6 µM; in the experiment with HOP-92 NSCLC it was 33.4 µM; with MOLT-4 leukemia it was 27.4 µM.

For `N#Cc1c(NC(=O)c2cccc3ccccc23)sc2c1CCCC2`, the GI50 is 0.157 µM with SN12C renal; 0.195 µM in the experiment on NCI-H226 lung; 0.09 µM with MCF7 breast; 0.079 µM in the experiment with PC-3 prostate; 0.0331 µM in the experiment on RXF 393 renal; 0.107 µM in the experiment on SNB-19 CNS. Besides, the GI50 in the experiment with BT-549 breast is 0.144 µM; in the experiment on IGROV1 ovarian, 0.177 µM; in the experiment with HOP-92 NSCLC, 0.457 µM; with MOLT-4 leukemia, 0.102 µM. Further, the TGI in the experiment with SN12C renal was above 25 µM; with NCI-H226 lung, above 25 µM; with MCF7 breast, above 25 µM; in the experiment with PC-3 prostate, above 25 µM; in the experiment with RXF 393 renal, 0.121 µM; in the experiment with SNB-19 CNS, above 25 µM. In addition, the TGI in the experiment with BT-549 breast was above 20.9 µM; in the experiment on IGROV1 ovarian it was above 25 µM; with HOP-92 NSCLC, above 25 µM; in the experiment with MOLT-4 leukemia it was above 25 µM.

For the compound `O=C(Nc1ccc(Cl)cc1)c1ccc([N+](=O)[O-])o1`, the GI50 in the experiment with SN12C renal was 1.68 µM; in the experiment on NCI-H226 lung, 1.93 µM; with MCF7 breast, 1.52 µM; with PC-3 prostate, 2.35 µM; in the experiment with RXF 393 renal, 1.34 µM; in the experiment with SNB-19 CNS, 2.6 µM. In addition, the GI50 in the experiment on BT-549 breast was 1.9 µM; with IGROV1 ovarian it was 3.25 µM; in the experiment with HOP-92 NSCLC it was 10.4 µM; with MOLT-4 leukemia, 7.19 µM. The TGI with SN12C renal was 4.12 µM; in the experiment with NCI-H226 lung it was 4.6 µM; in the experiment with MCF7 breast, 4.19 µM; in the experiment on PC-3 prostate, above 30.3 µM; in the experiment on RXF 393 renal it was 3.42 µM; in the experiment on SNB-19 CNS, 10.6 µM. Further, the TGI in the experiment with BT-549 breast was 4.06 µM; in the experiment on IGROV1 ovarian, 11.2 µM; in the experiment on HOP-92 NSCLC it was 27.2 µM; with MOLT-4 leukemia it was above 100 µM.

With `CCCCCCCCCCCCCCCCOC(=O)c1c(C)[nH]c(/C=C2\N=C(c3ccc[nH]3)C=C2OC)c1C`, the GI50 was 1.64 µM in the experiment with SN12C renal; 4.54 µM with NCI-H226 lung; 0.0686 µM with MCF7 breast; 0.162 µM with PC-3 prostate; 1.41 µM with RXF 393 renal; 11.8 µM in the experiment on SNB-19 CNS. Further, the GI50 was 2.23 µM in the experiment on BT-549 breast, 1.06 µM in the experiment on IGROV1 ovarian, 0.2 µM with HOP-92 NSCLC and above 100 µM in the experiment with MOLT-4 leukemia. In addition, the TGI was 23.7 µM with SN12C renal; 15.2 µM in the experiment with NCI-H226 lung; above 100 µM with MCF7 breast; above 100 µM in the experiment with PC-3 prostate; 6.46 µM in the experiment with RXF 393 renal; 80.3 µM in the experiment on SNB-19 CNS. Further, the TGI in the experiment on BT-549 breast is 20.4 µM; in the experiment on IGROV1 ovarian, 9.4 µM; with HOP-92 NSCLC, 0.83 µM; with MOLT-4 leukemia it was above 100 µM.
